Measurements taken from article PMC10518257 (Nature Cancer, 2023).
Where “and” joins values, the source holds several entries; their conditions need not be identical. Equal entries are not always repeated. Where two headings read alike, the source gives them in different places.

Key:
LUAD-0087AS2 cells = test: Growth inhibition (alamarBlue, 96 h); assay type: cell-based, human; conditions: for raw viability signal (Source Data Fig. 3b-c): LUAD-0087AS2, replicate sets
HBECp53-EV cells = test: Growth inhibition (alamarBlue, 96 h); assay type: cell-based, human; conditions: for raw viability signal (Source Data Fig. 3b-c): HBEC-EV, replicate sets
[1] = system: LUAD-0002AS1 cells (KIF5B::RET); test: Dose-response western blotting, EC50 for inhibition of protein phosphorylation; assay type: cell-based; conditions: Homo sapiens, LUAD-0002AS1, 2 h, densitometry
LC-2/ad cells = test: Growth inhibition (alamarBlue, 96 h); assay type: cell-based, human; conditions: for raw viability signal (Source Data Fig. 3b-c): LC-2/Ad, replicate sets
[2] = system: Ba/F3 cells expressing KIF5B–RET^G810S; test: Growth inhibition assay in Ba/F3 cells (CellTiter-Glo, 72 h); assay type: cell-based; conditions: Ba/3-KIF5B-RET-G810S; replicate Sets 1-3
[3] = system: Ba/F3 KIF5B–RET^G810R allograft tumors; test: Subcutaneous allograft efficacy study; assay type: in vivo, BALB/c nude mice; conditions: in mm³ (unit assumed);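 note: mean tumor volume per dosing group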
LUAD-0077AS1 PDX = test: PDX efficacy study; assay type: in vivo, NSG mice; conditions: Fig. 6b LUAD-0077AS1 tumor growth; 15 mg/kg BID
[4] = Homo sapiens, 96 h, read-out: IC50 for Inhibition of Growth (95% CI)

Q: How did the IC50 (LUAD-0087AS2 cells; [4]) turn out when `CO[C@]1(C(=O)N[C@@H](C)c2ccc(-n3cc(F)cn3)nc2)CC[C@H](c2nc(C)cc(Nc3cc(C)[nH]n3)n2)CC1` [Pralsetinib] was run?
A: 24 nM

Q: What about the “raw viability signal (Source Data Fig. 3b-c)” value (“raw viability signal” for short) (LUAD-0087AS2 cells; 0.01 nM) of the same compound?
A: 10767.7 and 15151.6 and 17255.6 and 15692.7

Q: And the “raw viability signal” value (LUAD-0087AS2 cells; 0.1 nM)?
A: 11083.5 and 15670.9 and 15636 and 16225.5

Q: And the “raw viability signal” value (LUAD-0087AS2 cells; 1 nM)?
A: 10977.2 and 15832.3 and 16084.8 and 16863

Q: And the “raw viability signal” value (LUAD-0087AS2 cells; 10 nM)?
A: 7788.62 and 8365.43 and 13487.5 and 12530.5

Q: And the “raw viability signal” value (LUAD-0087AS2 cells; 100 nM)?
A: 2806.08 and 5716.79 and 2099.37 and 2602.78

Q: What about the “raw viability signal” value (LUAD-0087AS2 cells; 1000 nM) of the same compound?
A: 2132.43 and 5081.65 and 1620.29 and 1608.1

Q: And the “raw viability signal” value (LUAD-0087AS2 cells; 10000 nM)?
A: 2211.28 and 4121.33 and 1386.59 and 1376.18

Q: And the “raw viability signal” value (HBECp53-EV cells; 0.01 nM)?
A: 18620.9 (2×) and 26084.1 and 32208.8

Q: What about the “raw viability signal” value (HBECp53-EV cells; 0.1 nM) of the same compound?
A: 18754 (2×) and 26388.7 and 34047.4

Q: And the “raw viability signal” value (HBECp53-EV cells; 1 nM)?
A: 20833.4 (2×) and 23057.6 and 32620.9

Q: What about the “raw viability signal” value (HBECp53-EV cells; 10 nM) of the same compound?
A: 19432.8 (2×) and 24252.3 and 33045.2

Q: And the “raw viability signal” value (HBECp53-EV cells; 100 nM)?
A: 20060.8 (2×) and 26236.5 and 33461.6

Q: What about the “raw viability signal” value (HBECp53-EV cells; 1000 nM) of the same compound?
A: 13712.5 (2×) and 19031.7 and 36040.1

Q: And the “raw viability signal” value (HBECp53-EV cells; 10000 nM)?
A: 6305.27 (2×) and 11469.7 and 22649.7

Q: And the IC50 (HBECp53-EV cells; [4])?
A: 6.9 µM

Q: What about the EC50 ([1]; read-out: EC50 for Inhibition of Protein Phosphorylation (95% CI), AKT S473) of the same compound?
A: 0.4 nM

Q: What about the EC50 ([1]; read-out: EC50 for Inhibition of Protein Phosphorylation (95% CI), ERK1/2 T202/Y204) of the same compound?
A: 3.5 nM

Q: And the EC50 ([1]; read-out: EC50 for Inhibition of Protein Phosphorylation (95% CI), MEK1/2 S217/S221)?
A: 0.9 nM

Q: What about the EC50 ([1]; read-out: EC50 for Inhibition of Protein Phosphorylation (95% CI), P70 RSK T421/S424) of the same compound?
A: 1.7 nM

Q: And the EC50 ([1]; read-out: EC50 for Inhibition of Protein Phosphorylation (95% CI), RET Y905)?
A: 1.1 nM

Q: And the EC50 ([1]; read-out: EC50 for Inhibition of Protein Phosphorylation (95% CI), S6RP S235/S236)?
A: 1.1 nM

Q: What about the IC50 (LC-2/ad cells; Homo sapiens, LC-2-ad, 96 h, read-out: IC50 for Inhibition of Growth (95% CI)) of the same compound?
A: 18 nM

Q: What about the “raw viability signal” value (LC-2/ad cells; 0.01 nM) of the same compound?
A: 14336.4 and 23167.3

Q: And the “raw viability signal” value (LC-2/ad cells; 0.1 nM)?
A: 14242.4 and 23367.8

Q: And the “raw viability signal” value (LC-2/ad cells; 1 nM)?
A: 13261.9 and 22232.1

Q: What about the “raw viability signal” value (LC-2/ad cells; 10 nM) of the same compound?
A: 6314.77 and 17508.9

Q: And the “raw viability signal” value (LC-2/ad cells; 100 nM)?
A: 3979.18 and 8357.34

Q: What about the “raw viability signal” value (LC-2/ad cells; 1000 nM) of the same compound?
A: 2225.01 and 2896.43

Q: What about the “raw viability signal” value (LC-2/ad cells; 10000 nM) of the same compound?
A: 918.728 and 947.198

Q: And the GI50 [2]?
A: 26.2 nM and 86 nM and 39.5 nM

Q: What about the “Tumor Volume Mean” value ([3]; Fig. 7c Ba/F3-KIF5B::RET G810R, pralsetinib 10 mg/kg BID, day 1) of the same compound?
A: 154.09

Q: And the “Tumor Volume Mean” value ([3]; Fig. 7c Ba/F3-KIF5B::RET G810R, pralsetinib 10 mg/kg BID, day 4)?
A: 213.90

Q: What about the “Tumor Volume Mean” value ([3]; Fig. 7c Ba/F3-KIF5B::RET G810R, pralsetinib 10 mg/kg BID, day 8) of the same compound?
A: 315.85

Q: What about the “Tumor Volume Mean” value ([3]; Fig. 7c Ba/F3-KIF5B::RET G810R, pralsetinib 10 mg/kg BID, day 11) of the same compound?
A: 472.80

Q: And the “Tumor Volume Mean” value ([3]; Fig. 7c Ba/F3-KIF5B::RET G810R, pralsetinib 10 mg/kg BID, day 15)?
A: 1059.21

Q: What about the “Tumor Volume Mean” value ([3]; Fig. 7d Ba/F3-KIF5B::RET G810R, pralsetinib 30 mg/kg BID, day 1) of the same compound?
A: 163.0

Q: And the “Tumor Volume Mean” value ([3]; Fig. 7d Ba/F3-KIF5B::RET G810R, pralsetinib 30 mg/kg BID, day 4)?
A: 312.7

Q: What about the “Tumor Volume Mean” value ([3]; Fig. 7d Ba/F3-KIF5B::RET G810R, pralsetinib 30 mg/kg BID, day 8) of the same compound?
A: 411.9

Q: What about the “Tumor Volume Mean” value ([3]; Fig. 7d Ba/F3-KIF5B::RET G810R, pralsetinib 30 mg/kg BID, day 11) of the same compound?
A: 562.8

Q: What about the “Tumor Volume Mean” value ([3]; Fig. 7d Ba/F3-KIF5B::RET G810R, pralsetinib 30 mg/kg BID, day 15) of the same compound?
A: 747.9

Q: What about the “Area Under Curve Mean” value (LUAD-0077AS1 PDX) of the same compound?
A: 189.7
